In assay [1] the target is T1, rat liver ornithine decarboxylase (Rattus norvegicus, UniProt P09057).
T1 construct: rat liver ornithine decarboxylase in vitro; from tissue; host or cells: rat liver
T1 sequence (P09057 1-461): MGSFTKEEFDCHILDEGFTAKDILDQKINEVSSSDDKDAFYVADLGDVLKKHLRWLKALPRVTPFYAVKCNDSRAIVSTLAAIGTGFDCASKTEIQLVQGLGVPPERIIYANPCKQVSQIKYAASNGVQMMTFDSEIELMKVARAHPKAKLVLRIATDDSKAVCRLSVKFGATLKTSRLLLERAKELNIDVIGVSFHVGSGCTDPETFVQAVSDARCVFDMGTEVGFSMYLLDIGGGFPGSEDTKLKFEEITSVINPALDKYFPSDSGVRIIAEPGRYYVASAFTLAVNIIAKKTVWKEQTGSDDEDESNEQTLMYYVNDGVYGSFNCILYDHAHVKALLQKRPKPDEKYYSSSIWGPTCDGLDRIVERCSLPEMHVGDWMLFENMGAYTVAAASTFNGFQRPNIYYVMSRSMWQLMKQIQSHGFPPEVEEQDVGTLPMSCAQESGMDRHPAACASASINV
The experiment in a line: time-dependent inhibition of rat liver ODC (in vitro). It counts as biochemical.

Assay [2] deals with E. coli ODC (Escherichia coli, UniProt P21169). The experiment in a line: time-dependent inhibition of bacterial ODC (in vitro), E. coli. The assay is classed as biochemical, Escherichia coli (M.R.C. 59). Further details: supernatant (approximately 16 mg protein/ml), used for the measurement of ornithine decarboxylase; endogenous in cells; host or cells: Escherichia coli M.R.C; 59, supernatant of sonicated cells. As to the method:
2-Fluoromethyl-2,5-diaminopentanoic acid (MFMO) was tested for in vitro inhibition of ornithine decarboxylase from Escherichia coli and from Pseudomonas aeruginosa according to the procedure described as follows:
Escherichia coli (M.R.C. 59) and Pseudomonas aeruginosa (A.T.C.C. 9027) were grown as described by Kallio et al., Biochem. J., 200, 69 (1981) in minimal medium [Davis et al., J. Bacteriol., 60, 17 (1950)] at 37° C. Cells were harvested by centrifugation (10 minutes at 10,000 g) and washed once with phosphate-buffered saline, pH 7.2 (0.125M NaCl, 10 mM Na2 HPO4, and 3 mM KH2 PO4). The cell pellet was suspended in 10 mM Tris/HCl (pH 7.5) containing 1 mM dithiothreitol and 0.1 mM EDTA and disrupted by sonication with a Branson Cell Disruptor 350 (5×30 sec, setting 3). Cell debris was removed by centrifugation at 25,000 g for 30 minutes and the supernatant (approximately 16 mg protein/ml), used for the measurement of ornithine decarboxylase, was stored frozen at -20° C. without appreciable loss of activity.
Ornithine decarboxylase activity was measured by the release of ^14 Co2. Assays contained 100 mM tris/HCl (pH 8.25 for E. coli and pH 7.5 for P. aeruginosa), 0.04 mM pyridoxal phosphate, 1mM dithiotheritol, 10 mM L-ornithine, 2.5 μCi D,L-[1-^14 C]ornithine and 80-120 μg bacterial protein in a total volume of 1 ml. […]
Time dependent irreversible inhibition of ornithine decarboxylase was determined according to the method of Kallio et al., Biochem. J., 200, 69 (1981). […] At selected times, 20 μl aliquots of the enzyme incubate were removed and transferred to the reaction flasks in which ODC activity was determined. […] The flasks were kept on ice until all time points were taken and then D,L-[1-^14 C]-ornithine was added and ODC activity was determined at 37° C. […]
Kinetic parameters for the inhibition of ODC were determined as described by Kitz, J. Biol. Chem., 237, 3245 (1962) as modified by Jung et al., Biochem. Biophys. […]

Assay [3] relates to female mice. The experiment in a line: contragestational activity in mice. Conditions: for Resorption nodules gravid female / Viable feti gravid female: autopsy day 18. The assay is classed as in vivo. As to the method:
2-Fluoromethyl-2,5-diaminopentanoic acid (MFM) was tested for contragestational activity in mice according to the procedure of J. Fozard et al., Eur. J. Pharmacol., 65, 379 (1980).
In this experiment, the compound was given at the doses stated, subcutaneously (s.c.), every 6 hours starting at 12:00 on day 8 of gestation (4 doses). Animals were autopsied on day 18 and the numbers of viable feti and resorption nodules recorded.

The target of assay [4] is T2, ODC of P. aeruginosa (Pseudomonas aeruginosa, UniProt Q9HVQ3).
T2 sequence (Q9HVQ3 1-387): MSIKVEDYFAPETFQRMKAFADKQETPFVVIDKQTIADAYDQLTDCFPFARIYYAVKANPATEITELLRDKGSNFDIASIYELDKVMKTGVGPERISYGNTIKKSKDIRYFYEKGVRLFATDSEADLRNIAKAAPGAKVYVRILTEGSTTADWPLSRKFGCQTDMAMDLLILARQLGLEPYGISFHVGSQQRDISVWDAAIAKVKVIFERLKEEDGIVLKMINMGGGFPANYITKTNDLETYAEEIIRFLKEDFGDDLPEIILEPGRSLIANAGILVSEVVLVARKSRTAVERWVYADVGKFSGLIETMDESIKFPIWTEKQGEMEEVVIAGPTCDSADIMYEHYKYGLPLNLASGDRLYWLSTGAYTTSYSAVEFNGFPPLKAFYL
The experiment in a line: ODC inhibition in intact P. aeruginosa cells. The assay is classed as cell-based. Conditions: in words. The source says:
However, by itself, α-MFMO has no effect on cell growth. Thus, […] inhibitory activity is useful only when used in combination with agents which will block other routes of polyamine biosynthesis, e.g. with both (a) α-difluoromethyl arginine, which inhibits arginine decarboxylase, and (b) dicyclohexylammonium sulfate, which inhibits spermidine synthesis.

Where [5] appears, read: 50 mg/kg s.c. every 6 hours from day 8 of gestation (4 doses).
[6] abbreviates: 100 mg/kg s.c. every 6 hours from day 8 of gestation (4 doses).
Setting [7] is: 200 mg/kg s.c. every 6 hours from day 8 of gestation (4 doses).
Setting [8] is: 400 mg/kg s.c. every 6 hours from day 8 of gestation (4 doses).

SMILES strings stand for the structures.

Sequence of E. coli ODC (P21169 whole entry): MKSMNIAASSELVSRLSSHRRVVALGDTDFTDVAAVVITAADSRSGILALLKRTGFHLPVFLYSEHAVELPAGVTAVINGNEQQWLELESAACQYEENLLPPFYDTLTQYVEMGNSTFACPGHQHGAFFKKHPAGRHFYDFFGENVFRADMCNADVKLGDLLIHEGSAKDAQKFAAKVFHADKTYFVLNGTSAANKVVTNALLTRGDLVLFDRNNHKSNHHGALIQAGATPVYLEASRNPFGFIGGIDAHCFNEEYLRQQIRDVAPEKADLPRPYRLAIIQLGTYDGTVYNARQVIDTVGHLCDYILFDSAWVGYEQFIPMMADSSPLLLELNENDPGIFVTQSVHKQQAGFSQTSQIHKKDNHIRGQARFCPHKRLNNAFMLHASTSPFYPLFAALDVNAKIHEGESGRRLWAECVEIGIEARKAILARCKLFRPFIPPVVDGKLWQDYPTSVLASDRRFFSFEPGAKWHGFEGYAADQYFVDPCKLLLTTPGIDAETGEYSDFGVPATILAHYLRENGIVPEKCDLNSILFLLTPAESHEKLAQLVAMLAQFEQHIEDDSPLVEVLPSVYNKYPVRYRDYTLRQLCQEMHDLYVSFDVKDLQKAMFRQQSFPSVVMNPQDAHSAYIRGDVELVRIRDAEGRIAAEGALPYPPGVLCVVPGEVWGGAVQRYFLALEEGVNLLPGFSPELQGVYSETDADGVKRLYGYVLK

Consider `NCCCC(N)(CF)C(=O)O` (stereo not shown) [MFMO, 2-Fluoromethyl-2,5-diaminopentanoic acid], for which the Ki in assay [1] (concentration of compound which gives half-maximal rate of inhibition, time-dependent inhibition) was determined as 75 µM; in assay [2] (E. coli ODC, concentration giving half-maximal rate of inhibition, 20° C., pH 8.25), 360 µM. Also, the “t1/2 at 10 μM” value in assay [1] (half-life of inhibition at 10 μM inhibitor) came out at 14 min. In addition, the T1/2 came to 1.6 min in assay [1] (half-life of inhibition at infinite concentration of inhibitor) and 12 min in assay [2] (E. coli ODC, half-life at infinite concentrations). Moreover, in assay [2] (in vitro, in words), the “inhibition of ODC of E. coli in vitro” value is listed as “inhibit”. Besides, the “Resorption nodules gravid female” value stood at 3.3 ± 1.1 in assay [3] (setting [5]), 2.3 ± 0.6 in assay [3] (setting [6]), 4.2 ± 1.2 in assay [3] (setting [7]) and 8.9 ± 1.9 in assay [3] (setting [8]). Further, the “Viable feti gravid female” value in assay [3] (setting [5]) was 9.1 ± 1.5; in assay [3] (setting [6]), 12.7 ± 0.9; in assay [3] (setting [7]) it was 9.2 ± 1.5; in assay [3] (setting [8]) it was 5.4 ± 1.5. The interruption of embryogenesis result in assay [3] (female mice, method of Fozard) was “capable of interrupting embryogenesis”. Moreover, the “inhibition of ODC of P. aeruginosa in intact cells” value in assay [4] is listed as “inhibit”.
